The Deep4Chem optical property database

Experiment: solvent given as SMILES

O=c1oc2ccccc2cc1/C=C/c1ccccc1
fluorescence lifetime (in CC#N): 2.48 ns

c1ccc2c(-n3cnc4ccccc43)cccc2c1
fluorescence lifetime (in C1CCCCC1): 5.1 ns | fluorescence lifetime (in CCOC(C)=O): 4.6 ns | fluorescence lifetime (in CO): 4.3 ns

COc1ccc2c(c1)c1cc(OC)ccc1c1c2c2c(C(=O)NC(C)(C)C)ccc(C(=O)NC(C)(C)C)c2c2c3ccc(OC)cc3c3cc(OC)ccc3c21
fluorescence lifetime (in ClCCl): 0.85 ns

O=c1oc2ccccc2cc1-c1nc2ccccc2o1
fluorescence lifetime (in CO): 3.47 ns | fluorescence lifetime (in ClC(Cl)(Cl)Cl): 3.17 ns | fluorescence lifetime (in OCCO): 3.78 ns

c1ccc2c(c1)cc(-c1cc(-c3nccs3)nc(-c3nccs3)c1)c1ccccc12
fluorescence lifetime (in CC#N): 1.94 ns | fluorescence lifetime (in CCCCCC): 5 ns | fluorescence lifetime (in CO): 1.79 ns | fluorescence lifetime (in ClC(Cl)Cl): 2.54 ns

CCn1c2sccc2c2c3nsnc3c3c4ccsc4n(CC)c3c21
fluorescence lifetime (in C1CCOC1): 15 ns | fluorescence lifetime (in CCOC(C)=O): 15.6 ns | fluorescence lifetime (in CN(C)C=O): 16.8 ns | fluorescence lifetime (in Cc1ccccc1): 13 ns | fluorescence lifetime (in ClCCl): 14.6 ns

C(#Cc1ccccc1)c1ccccc1
fluorescence lifetime (in ClC(Cl)Cl): 3.89 ns

C1=Cc2nc1c(-c1cccs1)c1ccc([nH]1)c(-c1cccs1)c1nc(c(-c3cccs3)c3ccc([nH]3)c2-c2cccs2)C=C1
fluorescence lifetime (in CN(C)C=O): 2.09 ns | fluorescence lifetime (in ClCCl): 9.27 ns

c1ccc2c(c1)[nH]c1c3ccccc3[nH]c21
fluorescence lifetime (in CCCO): 5.5 ns

COc1ccc(C#Cc2ccc(C#Cc3ccc(P(=O)(c4ccc(C#Cc5ccc(C#Cc6ccc(OC)cc6)cc5)cc4)c4ccc(C#Cc5ccc(C#Cc6ccc(OC)cc6)cc5)cc4)cc3)cc2)cc1
fluorescence lifetime (in C1CCCCC1): 0.58 ns | fluorescence lifetime (in C1COCCO1): 0.69 ns | fluorescence lifetime (in CC#N): 1.14 ns | fluorescence lifetime (in CCO): 1.02 ns | fluorescence lifetime (in CS(C)=O): 1.24 ns | fluorescence lifetime (in ClC(Cl)Cl): 0.74 ns | fluorescence lifetime (in ClCCl): 0.85 ns

Oc1cccc2ccccc12
fluorescence lifetime (in C1CCCCC1): 15 ns

COc1cc(N(c2ccc(C=C(C#N)C#N)c(OC)c2)c2ccc(C=C(C#N)C#N)c(OC)c2)ccc1C=C(C#N)C#N
fluorescence lifetime (in C1COCCO1): 0.65 ns | fluorescence lifetime (in CC#N): 0.14 ns | fluorescence lifetime (in CC(C)=O): 0.17 ns | fluorescence lifetime (in CCOC(C)=O): 0.32 ns | fluorescence lifetime (in CN(C)C=O): 0.06 ns | fluorescence lifetime (in CO): 0.12 ns | fluorescence lifetime (in Cc1ccccc1): 0.03 ns | fluorescence lifetime (in ClC(Cl)Cl): 0.14 ns | fluorescence lifetime (in ClCCl): 0.09 ns

C[Si]1(C)c2cc(-c3ccc(N(c4ccccc4)c4ccccc4)cc3)ccc2C=Cc2ccc(-c3ccc(N(c4ccccc4)c4ccccc4)cc3)cc21
fluorescence lifetime (in ClCCl): 2.1 ns

CC1(C)c2ccccc2N(c2ccc(C(=O)c3cc(C(=O)c4ccc(N5c6ccccc6C(C)(C)c6ccccc65)cc4)cc(C(=O)c4ccc(N5c6ccccc6C(C)(C)c6ccccc65)cc4)c3)cc2)c2ccccc21
fluorescence lifetime (in Cc1ccccc1): 16.7 ns | fluorescence lifetime (in c1ccc2c(c1)c1ccccc1n2-c1ccc(-c2ccc(-n3c4ccccc4c4ccccc43)cc2)cc1): 25.8 ns

O=[N+]([O-])c1ccc(/C=C/c2nc3c4ccccc4c4ccccc4c3o2)cc1
fluorescence lifetime (in CC#N): 3.01 ns

O=[N+]([O-])c1ccc(O)c(-c2nc3c(c4c2-c2ccccc2CC4)-c2ccccc2CC3)c1
fluorescence lifetime (in ClCCl): 0.45 ns

CCCCCCCCCCCCOc1cc2c3c(ccc4c5c(NC6CCCCC6)cc6c7c(ccc(c1c34)c75)C(=O)N(C1CCCCC1)C6=O)C(=O)N(C1CCCCC1)C2=O
fluorescence lifetime (in ClC(Cl)Cl): 0.8 ns

CCOC(=O)c1ccc(NC(=O)COc2cc3c4c([nH]c3c(C)c2C)C(=O)CCC4)cc1
fluorescence lifetime (in C1COCCO1): 1.23 ns | fluorescence lifetime (in CC#N): 1.04 ns | fluorescence lifetime (in CCO): 1.26 ns | fluorescence lifetime (in CS(C)=O): 2.12 ns | fluorescence lifetime (in Cc1ccccc1): 1.1 ns

C[n+]1ccc2c(ccc3c[n+](C)c4ccc5ccccc5c4c32)c1
fluorescence lifetime (in CC#N): 10.2 ns

COc1ccc(C#Cc2c3cc4ccccc4cc3c(C#Cc3ccc(OC)cc3)c3cc4sc(C)cc4cc23)cc1
fluorescence lifetime (in ClCCl): 11.8 ns

CC(C)(C)c1cc(-c2cc3c(cc(-c4cc(C(C)(C)C)cc(C(C)(C)C)c4)n3-c3ccc(C(=C(c4ccccc4)c4ccccc4)c4ccccc4)cc3)n2-c2ccc(C(=C(c3ccccc3)c3ccccc3)c3ccccc3)cc2)cc(C(C)(C)C)c1
fluorescence lifetime (in ClCCl): 1.6 ns

CCNc1ccc2c(c1)C(C)(C)C(=O)C=C2
fluorescence lifetime (in O): 3.9 ns

FC(F)(F)C(F)(F)C(F)(F)C(F)(F)C(F)(F)C(F)(F)CCOc1nnc(Cl)nn1
fluorescence lifetime (in ClCCl): 153 ns | fluorescence lifetime (in OCC(F)(F)F): 152 ns

CC(C)(C)c1ccc(Oc2cc3c4c(cc(Oc5ccc(C(C)(C)C)cc5)c5c6c(Oc7ccc(C(C)(C)C)cc7)cc7c8c(cc(Oc9ccc(C(C)(C)C)cc9)c(c2c45)c86)C(=O)N(c2ccccc2)C7=O)C(=O)N(c2ccccc2)C3=O)cc1
fluorescence lifetime (in ClC(Cl)Cl): 6 ns

c1ccc(-c2cc(-c3nnc(-c4ccc(N5c6ccccc6Oc6ccccc65)cc4)o3)c(-c3ccccc3)c(-c3ccccc3)c2-c2ccccc2)cc1
fluorescence lifetime (in c1ccc(-n2c(-c3c(-n4c5ccccc5c5ccccc54)cccc3-n3c4ccccc4c4ccccc43)nc3ccccc32)cc1): 4.1 ns

c1ccc(-[c+]2c3ccccc3sc3ccccc32)cc1
fluorescence lifetime (in CC#N): 1 ns

COc1ccc(Oc2ccc3c4c(cccc24)C(=O)N(c2c(C(C)C)cccc2C(C)C)C3=O)cc1
fluorescence lifetime (in ClCCl): 4.9 ns

c1coc(-c2nc3ccccc3[nH]2)c1
fluorescence lifetime (in C1CCOC1): 1.47 ns | fluorescence lifetime (in CCCCCC): 1.48 ns | fluorescence lifetime (in CCO): 1.55 ns | fluorescence lifetime (in CCOCC): 1.53 ns | fluorescence lifetime (in CO): 1.58 ns | fluorescence lifetime (in ClC(Cl)Cl): 0.6 ns | fluorescence lifetime (in ClCCl): 1.26 ns | fluorescence lifetime (in O): 1.67 ns

CCCCn1c2ccc(-c3cccs3)cc2c2c1c1c3ccc(-c4cccs4)cc3n(CCCC)c1c1c3ccc(-c4cccs4)cc3n(CCCC)c21
fluorescence lifetime (in C1CCOC1): 4.2 ns

Cc1nc(-c2ccc(-n3c4ccccc4c4ccccc43)cc2)cc(-c2ccc(-n3c4ccccc4c4ccccc43)cc2)n1
fluorescence lifetime (in C1CCOC1): 4.1 ns | fluorescence lifetime (in CN(C)C=O): 6.95 ns | fluorescence lifetime (in Cc1ccccc1): 2.05 ns | fluorescence lifetime (in ClC(Cl)Cl): 3.86 ns

COc1ccc(-c2cc(-c3ccc(N(C)C)cc3)nc(-c3ccccc3)n2)cc1
fluorescence lifetime (in ClC(Cl)Cl): 7.1 ns

N#Cc1ccc(N)cc1
fluorescence lifetime (in C1CCCCC1): 5.6 ns | fluorescence lifetime (in CC#N): 2.6 ns | fluorescence lifetime (in CCCCCC): 3.2 ns | fluorescence lifetime (in CCO): 0.68 ns | fluorescence lifetime (in O): 0.067 ns | fluorescence lifetime (in OCC(F)(F)F): 0.13 ns

COc1ccc(C2=[O+][B-](F)(F)OC(c3ccc4c(c3)Cc3ccccc3-4)=C2)cc1
fluorescence lifetime (in CC#N): 1.6 ns

Cc1ccc2nc3c(=O)n(C)c(=O)nc-3n(C)c2c1
fluorescence lifetime (in CC#N): 4.9 ns

CC(C)(C)c1ccc(C2=C(c3ccc(N4c5ccccc5C(C)(C)c5ccccc54)cc3)S(=O)(=O)c3c2sc(-c2ccc(N4c5ccccc5C(C)(C)c5ccccc54)cc2)c3-c2ccc(C(C)(C)C)cc2)cc1
fluorescence lifetime (in C1CCOC1): 1.61 ns

CC(C)(C)OC(=O)NC(Cc1ccc2oc(-c3ccccn3)nc2c1)C(=O)O (stereo not given)
fluorescence lifetime (in CC1CCCCC1): 2.9 ns | fluorescence lifetime (in CC#N): 1.92 ns | fluorescence lifetime (in CO): 1.19 ns

CC(C)c1cc(C(C)C)c(-c2nnc(-c3ccc(-n4c5ccccc5c5ccccc54)cc3)o2)c(C(C)C)c1
fluorescence lifetime (in CCO): 2.19 ns

C1=CC2=CC=CC3C=c4c(cc5cccc6cccc4c65)C(=C1)C23 (stereo not given)
fluorescence lifetime (in ClCCl): 7.18 ns

COc1cccc(-[c+]2c3ccccc3oc3ccccc32)c1
fluorescence lifetime (in CC#N): 0.028 ns

F[B-]1(F)OC(c2ccccc2)=Cc2ccc3ccccc3[n+]21
fluorescence lifetime (in ClC(Cl)Cl): 1.29 ns

COc1cc(OC)cc(C2=[O+][B-](F)(F)OC(c3ccc4cc(OC)ccc4c3)=C2)c1
fluorescence lifetime (in ClCCl): 4.32 ns

COc1ccc(-c2ccc(-c3ccc(C#N)s3)s2)cc1
fluorescence lifetime (in C1CCCCC1): 0.23 ns | fluorescence lifetime (in C1COCCO1): 0.38 ns | fluorescence lifetime (in CC#N): 0.97 ns | fluorescence lifetime (in CC(C)O): 0.89 ns | fluorescence lifetime (in CCCCO): 0.91 ns | fluorescence lifetime (in CCO): 0.93 ns | fluorescence lifetime (in CCOC(C)=O): 0.44 ns | fluorescence lifetime (in CN(C)C=O): 1.44 ns | fluorescence lifetime (in CO): 1.06 ns | fluorescence lifetime (in CS(C)=O): 1.76 ns | fluorescence lifetime (in Cc1ccccc1): 0.34 ns | fluorescence lifetime (in ClC(Cl)Cl): 0.6 ns | fluorescence lifetime (in ClCCl): 0.74 ns | fluorescence lifetime (in O): 0.91 ns

Cc1cc(C)n2c1C=C1c3ccccc3C(c3c[nH]c4ccccc34)=[N+]1[B-]2(F)F
fluorescence lifetime (in ClCCl): 6.42 ns
